Measurements reported in patent publication US8835389B2, “Use of calcitonin for the treatment of RA” (priority 2005, dated 2014).
No end group written: not given here.

Key:
[1] = in vivo
[2] = system: Collagen Induced Arthritis model (CIA-model) in lewis rats; test: Collagen Induced Arthritis model (CIA-model), serum CTX-II; type: in vivo; details: day 21 after collagen injection, 50 mg/kg 5-CNAC+calcitonin 2 mg/kg twice daily, versus CIA-group
Text: Arthritis induced in rodents by the systemic administration of type II collagen (CII) is an experimental model with many resemblances to RA, and is widely used for studying the disease processes (reviewed in Wooley P H, Chapedelaine J M. Immunogenetics of collagen-induced arthritis. Crit Rev Immunol 1987; 8: 1-22; and Trentham D E. Collagen arthritis as a relevant model for rheumatoid arthritis. Arth Rheum 1982; 25: 9116).
Upon immunization with purified CII in complete Freund's adjuvant, genetically susceptible strains of rodents develop arthritis, which is characterized by cellular and humoral immune responses to CII. […]
Animals are monitored for signs of arthritis one week post immunization on a daily basis and a clinical scoring system is adopted wherein each limb is given a clinical score on the basis of visual signs of oedema and/or erythema as follows: 0=normal, 1=slight swelling and/or erythema at the base of the paw, 2=frank oedema and erythema involving the entire paw, 2·5=pronounced oedema and erythema leading to an incapacitated limb mobility, 3=ankylosis, as previously described in Malfait A M, Butler D M, Presky D H et al., Blockade of IL-12 during the induction of collagen-induced arthritis (CIA) markedly attenuates the severity of the arthritis. […]

[3] = Water solubility of delivery agents

O=C(O)CCCCCCCNC(=O)c1cc(Cl)ccc1O [5 CNAC, N-(5-chlorosalicyloyl)-8-aminocaprylic acid]
absorbed by the gastro-intestinal tract [1]: greater than 90%

Calcitonin (CGNLSTCMLGTYTQDFNKFHTFPQTAIGVGAP; ends and bridges not checked; cysteine pairing not given here; UniProt P01258 85-116, looked up)
reduction of the increase in serum c-terminal telopeptide of type II collagen (serum CTX-II) [2]: 33%

O=C(O)CCCCCCCCCNC(=O)c1ccccc1O [SNAD, N-(10-[2-hydroxybenzoyl]amino)decanoic acid]
water solubility [3]: very water soluble
